How the values were obtained:
[1] = test system: endothelial cells; experiment: Adhesion of PMN to endothelial cells induced by TNF-α (myeloperoxidase); type: cell-based, human; details: compound 10 μM vs pentoxifylline 50 μM; TNF-α 1 ng/ml
Method: (§1) Human endothelial cells were cultivated under the same conditions as those described for Example 18.
(§2) When the cells were near confluence, they were incubated for one hour in the presence or absence of the following compounds: BXT-51072, BXT-51077 or pentoxifylline. Compounds BXT-51072 and BXT-51077, each at 10 μM, and the pentoxifylline, at 50 μM, were incorporated in culture medium containing 2% of foetal calf serum, all other conditions being the same. […] Myeloperoxidase (MPO), an enzyme specifically contained in PMNs, was then measured in the cell lysates obtained to evaluate adhesion of the PMNs on the endothelial cells. The von Willebrandt factor (vWf) liberated in the culture medium by the endothelial cells was measured after three and a half hours of incubation, as a label of the changes in the cells.
(§3) Incubation of the endothelial cells in the presence of PMN and TNF-α led to a very significant increase in the quantity of MPO and vWf with respect to the respective controls (PMN alone, and endothelial cells alone respectively), meaning the adhesion of activated PMNs to the endothelial cells and changes in the latter.
(§4) They are expressed as the percentage inhibition by referring the MPO and vWf measurements to the respective concentrations of MPO and vWf determined when the endothelial cells were incubated with TNF-α and PMNs.

[2] = test system: endothelial cells; experiment: Endothelial changes induced by PMN and TNF-α (von Willebrandt factor release); type: cell-based, human; details: BXT compounds 10 μM, pentoxifylline 50 μM; TNF-α 1 ng/ml; 3.5 h
Method: as §1, §2, §3, §4

[3] = test system: rat; experiment: Tolerance after repeated oral administration to the rat in vivo; parameters: species or system Sprague-Dawley rat; details: 14 days
Method: Male adult Sprague-Dawley rats were randomly divided into 4 groups. To one group of 10 rats and another group of 15 rats, one dose of 10 μmoles and one dose of 100 μmoles per kilogram of body weight of BXT-51072 were respectively orally administered (force feeding) each day for 14 days. These doses were administered using an aqueous solution containing 1% of sodium carboxymethylcellulose (CMC). Using the same procedure, a third group of 12 rats received only the vector (1% CMC) and a […] group of 3 rats received no force feeding.
In order to evaluate any toxicity in the test compound, all the animals were regularly weighed over the 14 days. Their appearance and behavior were observed daily.
About 16 hours after the final administration, the rats were anaesthetised with ketamine and blood samples were taken by intra-cardiac tapping to measure different hematological and biochemical parameters. The weight curves of the animals are shown in FIGS. 5 and 6 and Table 3 summarises the results of measurements carried out on the blood of the animals and the corresponding deviations.

[4] = test system: interleukin 8 (IL-8); experiment: Endothelial production of interleukin 8 induced by TNF-α; type: cell-based, human; details: Homo sapiens, 4 h, read-out: inhibition of IL-8 production induced by TNF-α
Method: as §1
When the cells were near confluence, they were incubated for one hour in the presence or absence of the following compounds: BXT-51072, BXT-51077 or ebselen. Each of these compounds was incorporated into culture medium containing 2% of foetal calf serum at 10 μM, all other conditions being the same. […] After four hours of incubation, the interleukin 8 (IL-8) in the culture medium was measured.

[5] = test system: P-selectin; experiment: Endothelial expression of P-selectin induced by TNF-α (ELISA); type: cell-based; details: Homo sapiens, Endothelial cell; compound 10 μM; TNF-α 1 ng/ml; 3 to 4 hours; read-out: inhibition of TNF-α induced increase in expression of P-selectin
Method: Human endothelial cells were cultivated under the same conditions as those described for Example 18. When the cells were near confluence, they were incubated for one hour in the presence or absence of BXT-51072 at 10 μM in culture medium containing 2% of foetal calf serum, all other conditions being the same. The cells were then washed three times with a PBS buffer. The cells which had not been pretreated by a compound were incubated in the presence or absence (control) of TNF-α, at 1 ng/ml, in the same culture medium. The pretreated cells were incubated under the same conditions, but the medium also contained BXT-51072 at 10 μM. After 3 to 4 hours of incubation, the cells were washed with a PBS buffer and fixed with 2% formaldehyde in a PBS buffer.

[6] = 10 and 100 μmoles/kg oral daily

## CC1(C)CN[Se]c2ccccc21 [BXT-51072, 4,4-dimethyl-benzisoselenazine]
[1]
  inhibition of the adhesion of PMN induced by TNF-α (MPO): inhibit the adhesion of PMN induced by TNF-α, much more effectively than pentoxifylline
[2]
  protection of endothelial cells against the deleterious effects of activated PMNs (vWf): protect endothelial cells against the deleterious effects of activated PMNs
[3]; 10 μmoles/kg oral, n 4
  BAS (basophiles): 0%
  EOS (eosinophiles): 0%
  GB (White cells): 8.45 G/l
  GR (Red cells): 6.88 T/l
  HB (Hemoglobin): 9.08 mM
  HCT (Hematocrit): 0.41
  LYM (Lymphocytes): 82%
  MON (Monocytes): 0%
  NEU (neutrophiles): 18%
  PAL (Alkaline phosphalase): 320 Ul/l
  PLT (Platelets): 541 G/l
  Urea: 4.03 mM
  VGM (Average cell volume of GR): 59.8 II
[3]; 10 μmoles/kg oral, n = 1
  K^+: 5.0 mM
  Na^+: 143 mM
[3]; 10 μmoles/kg oral, n = 2
  Cl^-: 93 mM
  Prot (Proteins): 53.9 g/L
[3]; 10 μmoles/kg oral, n = 3
  ALAT (Alanine aminotransferase): 50 Ul/l
  ASAT (Aspartale aminotransferase): 136 Ul/l
[3]; 100 μmoles/kg oral daily
  weight gain: slight slowing in weight gain
[3]; 100 μmoles/kg oral, n 7
  BAS (basophiles): 0%
  EOS (eosinophiles): 1%
  GB (White cells): 7.57 G/l
  GR (Red cells): 7.44 T/l
  HB (Hemoglobin): 9.46 mM
  HCT (Hematocrit): 0.43
  LYM (Lymphocytes): 81%
  MON (Monocytes): 0%
  NEU (neutrophiles): 18%
  PLT (Platelets): 517 G/l
  VGM (Average cell volume of GR): 57.6 II
[3]; 100 μmoles/kg oral, n = 2
  K^+: 5.0 mM
  Na^+: 143 mM
[3]; 100 μmoles/kg oral, n = 4
  ALAT (Alanine aminotransferase): 58 Ul/l
  ASAT (Aspartale aminotransferase): 133 Ul/l
  Cl^-: 93 mM
  Prot (Proteins): 55.0 g/L
[3]; 100 μmoles/kg oral, n = 5
  PAL (Alkaline phosphalase): 310 Ul/l
  Urea: 4.05 mM
[3]; [6]
  mortality: none of the animals had died
  other signs of toxicity: no other sign of toxicity
[3]; repeated oral administration
  tolerance: tolerated well
[4]
  inhibition at 10 µM: ≥ 70%
[5]
  inhibition at 10 µM: > 90%
